{"source": "patent US7405228B2", "about": "“Antibacterial cyano-(substituted)-methylenepiperidinophenyl oxazolidinones targeting multiple ribonucleoprotein sites” (Wockhardt Limited, priority 2002, dated 2008)", "key": {"MRSA 032 LR": {"test_system": "MRSA 032 LR", "experiment": "MIC determination, linezolid-resistant mutant MRSA 032 LR", "type": "cell-based", "settings": "Staphylococcus aureus, read-out: Linezolid MIC"}, "[1]": {"test_system": "Enterococcus faecalis 416 strain", "experiment": "Propensity to resistance development (resistant colonies per plate)", "type": "cell-based", "settings": "E. faecalis 416 at 10^8 CFU, compound concentration 5 mcg/ml, 48 hours at 35° C.", "experimental": "Enterococcus faecalis 416 strain at 10^8 CFU density level was spirally plated on Mueller Hinton agar containing 5 mcg/ml each of linezolid and representative compound of the invention. Plates were incubated at 35° C. for 48 hours and number of resistant colonies developed in presence of respective compounds were counted by automated counter."}, "[2]": {"test_system": "Enterococcus faecalis 416", "experiment": "Mutant Prevention Concentration (MPC) determination", "type": "cell-based", "parameters": "unit not given here", "settings": "E. faecalis 416, 10^9 CFU/plate, TSA, 48 hours at 35° C.", "experimental": "Clinical isolate Enterococcus faecalis 416 was spirally plated on Tryptic Soya agar (TSA) plate containing various 2 fold dilutions each of a representative compound of the invention and Linezolid so as to give 10^9 CFU/plate. After incubation at 35° C. for 48 hours, the CFU on each plate was determined. MPC is defined as minimum concentration of drug that prevents mutant colonies on respective antibiotic containing plate."}, "[3]": {"test_system": "Enterococcus faecalis 416 strain", "experiment": "Killing effect study (bactericidal vs bacteriostatic activity)", "type": "cell-based", "settings": "initial count 10^6 CFU/ml", "experimental": "The initial inoculum was adjusted to 10^6 CFU (colony forming units) per ml. The flasks were kept on shaker in close cabinet at 35° C. Aliquots were drawn at 112 hours and cell count was determined to assess the extent of loss in viability."}, "MRSA-32 LNZR": {"test_system": "MRSA-32 LNZR", "experiment": "ED50 in mouse systemic infection model, MRSA-32 LNZR", "type": "in vivo"}, "S. aureus MRSA-32 LNZR": {"test_system": "S. aureus MRSA-32 LNZR", "experiment": "MIC determination, linezolid resistant S. aureus MRSA-32 LNZR", "type": "cell-based", "settings": "Staphylococcus aureus", "experimental": "(§1) Infecting doses of organisms given by intraperitoneal route in 5% hog gastric mucin were 10^3-10^4 CFU (colony forming units)/animal for SPN 6303 and 10^8 CFU/animal for MRSA-32. In case of MRSA-32, Linezolid was administered by oral route, 1 and 4 h post infection, BID (twice a day) for 1 day and for SPN 6303 BID for 2 days. […] MICs of Methicillin Resistant Staphylococcus aureus-32 Linezolid resistant (MRSA-32 LNZR), S. pneumoniae 744 Linezolid resistant (SPN 744 LNZR) and parent Linezolid sensitive strains MRSA-32 and SPN 6303 were determined for Linezolid by NCCLS agar dilution method.\n(§2) Cultures were further diluted 1:10 in Mueller Hinton broth. Using Denley's mutipoint inoculator, 10^4 cells were deposited on Mueller Hinton agar (Difco) containing range of 2 fold dilutions of test compounds. […] MIC is defined as minimum drug concentration that inhibits test organisms. For determining MIC of test compounds against Streptococcus pneumoniae, Mueller Hinton agar containing 5% sheep blood was employed."}, "[4]": {"test_system": "S. pneumoniae ATCC 6303 LR", "experiment": "MIC determination, linezolid-resistant mutant S. pneumoniae ATCC 6303 LR", "type": "cell-based", "settings": "Streptococcus pneumoniae, ATCC6303, read-out: Linezolid MIC"}, "SPN 6303": {"test_system": "SPN 6303", "experiment": "ED50 in mouse systemic infection model, SPN 6303", "type": "in vivo", "settings": "SPN 6303 parent strain", "experimental": "as §1"}, "S. aureus Smith LR": {"test_system": "S. aureus Smith LR", "experiment": "MIC determination, linezolid-resistant mutant S. aureus Smith LR", "type": "cell-based", "settings": "Staphylococcus aureus, read-out: Linezolid MIC"}, "MRSA 032": {"test_system": "MRSA 032", "experiment": "MIC determination, linezolid sensitive MRSA 032 (MRSA-32)", "type": "cell-based", "settings": "Staphylococcus aureus"}, "SPN 744 LNZR [5]": {"test_system": "SPN 744 LNZR", "experiment": "MIC determination, linezolid resistant SPN 744 LNZR", "type": "cell-based", "settings": "Streptococcus pneumoniae", "experimental": "as §1, §2"}, "S. pneumoniae ATCC 6303": {"test_system": "S. pneumoniae ATCC 6303", "experiment": "MIC determination, linezolid sensitive S. pneumoniae ATCC 6303 (SPN 6303)", "type": "cell-based", "settings": "Streptococcus pneumoniae, ATCC6303", "experimental": "as §1"}, "E. faecium ATCC 19434": {"test_system": "E. faecium ATCC 19434", "experiment": "MIC determination, parent strain E. faecium ATCC 19434", "type": "cell-based", "settings": "Enterococcus faecium, ATCC19434; Linezolid sensitive E. faecium ATCC 19434, NCCLS method", "experimental": "(§3) E. faecium ATCC 19434 strain at a cell density of 10^6/ml was inoculated in Mueller Hinton broth medium containing Linezolid at a concentration of 5 and 7.5 mcg/ml. The stationary culture was incubated at 37° C. and inspected at every 24 hours to assess the formation of turbidity due to the onset of bacterial growth. […] A 50 microliter sample of turbid flask was plated on Mueller Hinton agar medium incorporated with linezolid at 7.5 mcg/ml. The agar plates were incubated for 48 hours at 37° C. for the formation of discrete colonies of linezolid-resistant strain of E. faecium (E. faecium 367 LNZR). MICs of resistant mutant E. faecium 367 LNZR and parent strain E. faecium ATCC 19434 were determined for linezolid by NCCLS method."}, "E. faecium 367 LNZR": {"test_system": "E. faecium 367 LNZR", "experiment": "MIC determination, linezolid resistant E. faecium 367 LNZR", "type": "cell-based", "settings": "Enterococcus faecium", "experimental": "as §3, §2"}, "SPN 744 LNZR [6]": {"test_system": "SPN 744 LNZR", "experiment": "ED50 in mouse systemic infection model, SPN 744 LNZR", "type": "in vivo"}, "SPN 49619": {"test_system": "SPN 49619", "experiment": "MIC determination, linezolid sensitive SPN 49619", "type": "cell-based", "settings": "Streptococcus pneumoniae; linezolid sensitive strain, Table 3"}, "MRSA-32": {"test_system": "MRSA-32", "experiment": "ED50 in mouse systemic infection model, MRSA-32", "type": "in vivo", "settings": "MRSA-32 parent strain", "experimental": "as §1"}, "S. aureus Smith": {"test_system": "S. aureus Smith", "experiment": "MIC determination, S. aureus Smith", "type": "cell-based", "settings": "Staphylococcus aureus, read-out: Linezolid MIC"}}, "note": "Read-outs that look alike come from different tables or passages of the source.", "data": [{"smiles": "CC(=O)NC[C@H]1CN(c2ccc(N3CCOCC3)c(F)c2)C(=O)O1", "note": "[Linezolid, reference compound]", "values": [{"measurement": "MIC", "setting": "MRSA 032 LR", "value": 25, "unit": "mg/L"}, {"measurement": "No. of colonies/plate", "setting": "[1]", "value": "1.2 × 10^2"}, {"measurement": "MPC", "setting": "[2]", "value": 12.5}, {"measurement": "Final Count (112 h)", "setting": "[3]; E. faecalis 416, 5 mcg/ml compound, Table 4", "value": "10^8 CFU/ml"}, {"measurement": "final count after killing effect study", "setting": "[3]; E. faecalis 416, 5 mcg/ml", "value": "10^9 CFU/ml"}, {"measurement": "ED50", "setting": "MRSA-32 LNZR", "value": 100, "unit": "mg/kg"}, {"measurement": "MIC", "setting": "S. aureus MRSA-32 LNZR", "value": 50, "unit": "mg/L"}, {"measurement": "MIC", "setting": "S. aureus MRSA-32 LNZR; 24 h, read-out: MIC MRSA 32 LNZR", "value": "> 25", "unit": "mg/L"}, {"measurement": "MIC", "setting": "[4]", "value": 25, "unit": "mg/L"}, {"measurement": "ED50", "setting": "SPN 6303", "value": 75, "unit": "mg/kg"}, {"measurement": "MIC", "setting": "S. aureus Smith LR", "value": 50, "unit": "mg/L"}, {"measurement": "MIC", "setting": "MRSA 032", "value": 1.56, "unit": "mg/L"}, {"measurement": "MIC", "setting": "MRSA 032; read-out: Linezolid MIC", "value": 1.56, "unit": "mg/L"}, {"measurement": "MIC", "setting": "MRSA 032; read-out: MIC MRSA 32", "value": 1.56, "unit": "mg/L"}, {"measurement": "MIC", "setting": "SPN 744 LNZR [5]", "value": 25, "unit": "mg/L"}, {"measurement": "MIC", "setting": "SPN 744 LNZR [5]; read-out: MIC SPN744 LNZR", "value": 25, "unit": "mg/L"}, {"measurement": "MIC", "setting": "S. pneumoniae ATCC 6303; S. pneumoniae ATCC 6303, Table 1, read-out: Linezolid MIC", "value": 0.8, "unit": "mg/L"}, {"measurement": "MIC", "setting": "S. pneumoniae ATCC 6303; parent Linezolid sensitive SPN 6303, NCCLS agar dilution method, read-out: MIC", "value": 0.8, "unit": "mg/L"}, {"measurement": "MIC", "setting": "E. faecium ATCC 19434", "value": 1.56, "unit": "mg/L"}, {"measurement": "MIC", "setting": "E. faecium 367 LNZR", "value": 25, "unit": "mg/L"}, {"measurement": "MIC", "setting": "E. faecium 367 LNZR; read-out: MIC E. faecium 367 LNZR", "value": "> 25", "unit": "mg/L"}, {"measurement": "ED50", "setting": "SPN 744 LNZR [6]", "value": "> 200", "unit": "mg/kg"}, {"measurement": "MIC", "setting": "SPN 49619", "value": 0.8, "unit": "mg/L"}, {"measurement": "ED50", "setting": "MRSA-32", "value": 5, "unit": "mg/kg"}, {"measurement": "MIC", "setting": "S. aureus Smith", "value": 1.56, "unit": "mg/L"}]}]}
